The values below are quoted from earlier work in patent US6872523B1, “Materials and methods for molecular detection of clinically relevant pathogenic fungal species” (The Board of Regents of the University of Nebraska, priority 2000, dated 2005).

The subject of one series is A. fumigatus. The conditions noted are these: low end of the reported MIC range.
The next series relates to A. nidulans. As to conditions: high end of the reported MIC range.
Another series relates to A. terreus isolates. The conditions noted are these: share of A. terreus isolates resistant to AmB (refs 10, 17, 22).
The test system of a further series is A. niger. As to conditions: low end of the reported MIC range.
The test system of another series is A. flavus. The conditions noted are these: high end of the reported MIC range.

With `C[C@@H]1[C@H](O)[C@@H](C)/C=C/C=C/C=C/C=C/C=C/C=C/C=C/[C@H](O[C@@H]2O[C@H](C)[C@@H](O)[C@H](N)[C@@H]2O)C[C@@H]2O[C@](O)(C[C@@H](O)C[C@@H](O)[C@H](O)CC[C@@H](O)C[C@@H](O)CC(=O)O[C@H]1C)C[C@H](O)[C@H]2C(=O)O` [AmB, amphotericin B], the “AmB MIC” value with A. fumigatus is 0.5 µg/mL; with A. nidulans it was 16 µg/mL; in the series on A. niger, 0.5 µg/mL; in the series with A. flavus it was 16 µg/mL. Moreover, the “isolates reported as resistant” value in the series on A. terreus isolates is recorded as “over 95%”.
